Assay results taken from patent US9296760B2, “Antibacterial compounds” (JANSSEN SCIENCES IRELAND UC, priority 2012, dated 2016).
Values after ≈ are worked out from the molar mass of the structure shown.

Tests used:
[1] = target: T1, S. aureus ATCC 29213 FabI (Staphylococcus aureus, UniProt Q6GI75); assay: Staphylococcus aureus FabI enzyme inhibition assay; assay type: biochemical; conditions: NADH consumption, 30 minutes, read-out: FabI (300.235) IC50 (converted)
T1 sequence (Q6GI75 1-256): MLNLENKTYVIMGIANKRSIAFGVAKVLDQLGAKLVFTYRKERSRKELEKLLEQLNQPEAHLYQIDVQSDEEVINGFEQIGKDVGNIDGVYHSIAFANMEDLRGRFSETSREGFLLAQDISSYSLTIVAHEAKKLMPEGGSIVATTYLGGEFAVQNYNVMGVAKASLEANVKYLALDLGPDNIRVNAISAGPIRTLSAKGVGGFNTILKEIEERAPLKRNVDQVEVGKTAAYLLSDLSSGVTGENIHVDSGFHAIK
Method: Y.1 FabI Enzyme Inhibition: Staphylococcus aureus FabI Enzyme Inhibition Assay
FabI enzyme inhibition assays were carried out in half-area, 384-well microtitre plates. […] The reaction mixtures were incubated for 30 minutes at room temperature and the reaction was stopped by adding 200 mM Tris buffer (pH 9.0) to create a pH-shift. The consumption of NADH was monitored by measuring the change in absorbance at […]. By comparing sample readings to those of negative (absence of compound) and positive (absence of enzyme) controls, the percent inhibition of enzymatic activity of the compounds was determined A best-fit curve is fitted by a minimum of squares method. From this an IC50-value (expressed in μg/ml), resulting in 50% inhibition of enzymatic activity, was obtained.

[2] = system: Staphylococcus aureus ATCC 29213; assay: Antibacterial susceptibility testing, IC90 determination (broth microdilution, resazurin); assay type: cell-based; conditions: Staphylococcus aureus, ATCC29213, S. aureus ATCC 29213; 90% inhibitory concentration for bacterial growth; read-out: STA (361.159) IC90
Method: Y.2 In Vitro Method for Testing Compounds for Antibacterial Activity Against Various Bacterial Strains
Preparation of Bacterial Suspensions for Susceptibility Testing
The following bacteria were used: Staphylococcus aureus ATCC 29213, methicillin-resistant Staphylococcus aureus (MRSA) ATCC 700788 and Escherichia coli ATCC 35218. The bacteria used in this study were grown overnight in flasks containing 100 ml Mueller-Hinton broth (Difco cat. nr. 0757-17) in sterile de-ionized water, with shaking, at 37° C. Stocks were store at −70° C. until use.
Bacteria were incubated on a tryptic soy agar plate containing 5% sheep blood (Becton Dickinson cat. nr. 254053) for 18-24 hours at 35° C. in aerobic conditions (first passage). For the second passage, fresh Mueller-Hinton broth is inoculated with 5-10 colonies and grown overnight at 35° C. until turbidity (reaching log-phase) in aerobic conditions is reached. The bacterial suspension is then adjusted to 0.5 McFarland density and further diluted 1:100 in Mueller Hinton broth medium. This is used as inoculum.
The result(s) are depicted the table below (for STA ATCC 29213).
Antibacterial Susceptibility Testing: IC90 Determination
(§1) MIC assays were performed by the broth microdilution method in a 96-well format (flat-bottom microtitre plates) with a final volume of 0.1 ml Mueller Hinton broth containing two-fold serial dilutions of compounds and inoculated with 5×10^5 CFU/ml of bacteria (standard inoculum size according to CLSI guidelines). Inhibitors are typically varied over the range of 63 to 0.49 μM. The final DMSO concentration in the assay was 1.25% (maximum tolerable DMSO concentration=6%). In the assays where the effect of human serum on the activity of the compounds against S. aureus was tested, human serum was added at a final concentration of 10%. The plates were incubated at 35° C. for 16-20 hours. At the end of incubation the bacterial growth was quantified fluorometrically. For this, resazurin was added to all wells and the plates were re-incubated. The incubation time is dependent on the type of bacteria. A change in color from blue to pink indicated the growth of bacteria. The fluorescence was read in computer-controlled fluorometer (Fluoroskan Ascent FL, Labsystems) at an excitation wavelength 540 nm and an emission wavelength of 590 nm. The % growth inhibition achieved by the compounds was calculated according to standard methods. The IC90 (expressed in μg/ml) was defined as the 90% inhibitory concentration for bacterial growth. A panel of reference compounds were simultaneously tested for QC approval.

S. aureus = assay: Antibacterial susceptibility testing, IC90 determination with 10% human serum; assay type: cell-based, Staphylococcus aureus; conditions: Staphylococcus aureus, S. aureus with human serum at final concentration of 10%; read-out: STA + 10% HS (361.169) IC90
Method: as §1, with “Antibacterial Susceptibility Testing: IC90 Determination MIC” for “MIC”, “approval. The results are depicted in the table(s) below (STA+10% HS).” for “approval.”

Cytotoxicity MTT assay = assay type: cell-based, Human; conditions: human, HelaM cells, read-out: HELAM (222.125) CC50
Method: Cytotoxicity of the compounds was evaluated using the MTT assay. Human HelaM cells grown in 96-well plates were exposed to serial dilutions of the tested compounds (final volume of 0.2 ml) and incubated for 72 hours at 37° C. and 5% CO2 Inhibitors are typically varied over the range of 25 to 0.8 μM. The final DMSO concentration in the assay is 0.5%. MTT (3-(4,5-Dimethylthiazol-2-yl)-2,5-diphenyltetrazolium bromide, a tetrazole) was added and reduced to purple formazan only in living cells. Solubilization of the formazan crystals was achieved by adding 100 μl 2-propanol. Cell viability was determined by measuring the absorbance of the reduced formazan, giving a purple color, at 540 nm and 690 nm. The absorbance measured at 690 nm was automatically subtracted from the absorbance at 540 nm, to eliminate the effects of non-specific absorption. The percent cytotoxicity achieved by the compounds was calculated according to standard methods. Cytotoxicity is reported as CC50, the concentration that causes a 50% reduction in cell viability.
The results are depicted in the table(s) below (HELAM).

Structure (SMILES) | IC50 [1] | IC90 [2] | IC90 (S. aureus) | CC50 at 72 h (Cytotoxicity MTT assay) | melting point
Cc1cc(C(=O)Nc2ccc(/C=C/C(=O)N3CCC=C(c4ccccc4)CC3)cn2)no1 [compound 16] | 1540 nM | 3.29 µg/mL (≈ 7.68 µM) | 6.71 µg/mL | 7.89 µg/mL (≈ 18.4 µM) | 169.37 °C
CN1CC(=O)Nc2ncc(/C=C/C(=O)N3CCC=C(c4cccs4)CC3)cc2C1 [compound 33] | 1250 nM | 0.32 µg/mL (≈ 0.783 µM) | 0.26 µg/mL | > 10.3 µg/mL | 125 to 126 °C
COc1ccc(F)cc1C1=CCCN(C(=O)/C=C/c2cnc3c(c2)COCC(=O)N3)CC1 [compound 32] | 1260 nM | 0.22 µg/mL (≈ 0.503 µM) | 0.41 µg/mL | 10.1 µg/mL (≈ 23.2 µM) | 234 °C
Nc1ccc(/C=C/C(=O)N2CC=C(c3ccccc3)CCC2)cn1 [compound 21] | 3880 nM | 6.75 µg/mL (≈ 21.1 µM) | 12.9 µg/mL | 4.78 µg/mL (≈ 15 µM) | 184 °C
O=C(Nc1ccc(/C=C/C(=O)N2CCC=C(c3ccccc3)CC2)cn1)C1CCOC1 (stereo not drawn) [compound 20] | 934 nM | 6.69 µg/mL (≈ 16 µM) | 11.8 µg/mL | 10 µg/mL (≈ 24 µM) | 152 °C
Cn1nccc1C(=O)Nc1ccc(/C=C/C(=O)N2CCC=C(c3ccccc3)CC2)cn1 [compound 10] | 1920 nM | 0.92 µg/mL (≈ 2.15 µM) | 2.07 µg/mL | 5.44 µg/mL (≈ 12.7 µM) | 138 °C
COc1ccc(F)cc1C1=CCCN(C(=O)/C=C/c2ccc(NC(=O)c3cncc(C)c3)nc2)CC1 [compound 5] | 1790 nM | 0.66 µg/mL (≈ 1.36 µM) | 2.83 µg/mL | 7.8 µg/mL (≈ 16 µM) | 120 °C
O=C1Nc2ncc(/C=C/C(=O)N3CC=C(c4ccccc4)CCC3)cc2CN2CCSCC12 (stereo not drawn) [compound 51] | 1110 nM | 0.67 µg/mL (≈ 1.45 µM) | 1.6 µg/mL | 5.35 µg/mL (≈ 11.6 µM) | 224 °C
CC(C)C(=O)Nc1ccc(/C=C/C(=O)N2CCC=C(c3ccccc3)CC2)cn1 [compound 19] | 1280 nM | 6.32 µg/mL (≈ 16.2 µM) | 20.9 µg/mL | 8.52 µg/mL (≈ 21.9 µM) | 158 °C
O=C1Nc2ncc(/C=C/C(=O)N3CCC=C(c4ccccc4)CC3)cc2CN2CCOCC12 (stereo not drawn) [compound 46] | 562 nM | < 0.22 µg/mL | 0.53 µg/mL | > 11.2 µg/mL | 227.76 °C
O=C(Nc1ccc(/C=C/C(=O)N2CCC=C(c3ccccc3)CC2)cn1)c1ccccc1 [compound 9] | 1820 nM | 0.85 µg/mL (≈ 2.01 µM) | 6.26 µg/mL | 4.24 µg/mL (≈ 10 µM) | 158.31 °C
O=C1Nc2ncc(/C=C/C(=O)N3CCC=C(c4ccccc4)CC3)cc2CN2CCSCC12 (stereo not drawn) [compound 49] | 1110 nM | 0.39 µg/mL (≈ 0.847 µM) | 1.23 µg/mL | 4.88 µg/mL (≈ 10.6 µM) | 224.06 °C
